Assay results from patent US9572850B2, “Use of cajeput and Pimenta racemosa extract for treating parasitic infestation of fish” (Mars, Incorporated, priority 2009, dated 2017).

Key:
[1] = tested on: single guppies each infected with 2-200 G. turnbulli; experiment: Host mortality in Trial 2
Description: They were fed on a mixture of live food (Daphnia and Artemia spp.) and Aquarian fish flakes at least twice daily and were maintained at 25±1° C. with a 12 h dark:12 h light cycle.
On D1 (day 1) and D8 (day 8) the number of parasites and their location on the host were recorded by screening fish anaesthetised with 0.02% MS222 using a stereo-microscope and cold light illumination.
In a second trial, single guppies (n=115) each infected with 2-200 G. turnbulli were maintained as in Trial 1 and received treatments of either allyl disulphide, Pimafix®, Melafix® or a Pimafix®/Melafix® combination.

[2] = tested on: G. turnbulli; experiment: Trial 2: single parasite, single fish, low dose, 7 day treatment; efficacy of treatments; type: in vivo
Description: (§1) Efficacy of treatments in all trials was assessed using the following equation: Et=(L0−Lt)/L0 for Lt<L0, and ΔEt=0 for Lt>L0. Where • L0=parasite load at start of treatment • Lt=parasite load at end of treatment and • Et=efficacy of treatment at time t.
All data were analysed in Minitab vs. 15.

[3] = tested on: Gyrodactylus turnbulli infections on guppies; experiment: Allyl disulphide carefully applied: high dose 10 min exposure, followed by low dose 1 h exposure; type: in vivo; conditions: high dose 10 min exposure, followed by low dose 1 h exposure
[4] = tested on: G. turnbulli; conditions: 0.15 mg/l alone (daily water changes)
Description: as §1

Row | Compound | increase of host mortality compared to the control [1] [%] | Host mortalities (%) Trial 2 ([1]; single guppies, 7 day treatment) [%] | efficacy (in words) ([2]; Trial 2, single parasite, single fish, low dose, 7 day treatment) | efficacy (in words) ([2]; applied at a low dose, comparable to applications used in the aquarium trade) | efficacy (in words) [3] | efficacy at removing parasites (in words) [4]
1 | C=CCSSCC=C [Allyl disulphide, allyl disulphide] | 15 | 50 | not effective | not effective | effective only when carefully applied | –
2 | c1ccc([C@H]2CN3CCSC3=N2)cc1 [Levamisole, levamisole] | – | – | – | – | – | not effective at removing parasites
